In patent US4820694A, “Modifications of 3-O-demethylmycinose in macrocin and lactenocin” (priority 1986, dated 1989):
In brackets after ≈: the same amount, converted by molar mass.

What was measured:
[1] = tested on: Pasteurella multocida 68C; experiment: broth-dilution microtiter MIC test; format: cell-based; conditions: Pasteurella multocida, 68C
Experimental: (§1) The MIC's in Table III were determined by standard agar-dilution assays. The MIC's in Table IV were obtained using conventional brothdilution microtiter tests.

[2] = tested on: Mycoplasma gallisepticum 15E; experiment: broth-dilution microtiter MIC test; format: cell-based; conditions: Mycoplasmoides gallisepticum, 15E
Experimental: as §1

[3] = tested on: Bordetella bronchiseptica; experiment: broth-dilution microtiter MIC test; format: cell-based; conditions: Bordetella bronchiseptica
Experimental: as §1

[4] = tested on: Pasteurella hemolytica 22C; experiment: broth-dilution microtiter MIC test; format: cell-based; conditions: Pasteurella, 22C
Experimental: as §1

[5] = tested on: Pasteurella multocida 60A; experiment: broth-dilution microtiter MIC test; format: cell-based; conditions: Pasteurella multocida, 60A
Experimental: as §1

[6] = tested on: Pasteurella multocida 17E; experiment: broth-dilution microtiter MIC test; format: cell-based; conditions: Pasteurella multocida, 17E
Experimental: as §1

[7] = tested on: Pasteurella multocida 22A; experiment: broth-dilution microtiter MIC test; format: cell-based; conditions: Pasteurella multocida, 22A
Experimental: as §1

Streptococcus sp. 19F = experiment: broth-dilution microtiter MIC test; format: cell-based; conditions: Streptococcus, SP.19F
Experimental: as §1

[8] = tested on: Pasteurella hemolytica 41D; experiment: broth-dilution microtiter MIC test; format: cell-based; conditions: Pasteurella, 41D
Experimental: as §1

[9] = tested on: Mycoplasma gallisepticum 29C; experiment: broth-dilution microtiter MIC test; format: cell-based; conditions: Mycoplasmoides gallisepticum, 29C
Experimental: as §1

[10] = tested on: Staphylococcus aureus 19C; experiment: broth-dilution microtiter MIC test; format: cell-based; conditions: Staphylococcus aureus, 19C
Experimental: as §1

Mycoplasma hyorhinis 29E = experiment: broth-dilution microtiter MIC test; format: cell-based; conditions: Mycoplasma, 29E
Experimental: as §1

[11] = tested on: Mycoplasma gallisepticum 36H; experiment: broth-dilution microtiter MIC test; format: cell-based; conditions: Mycoplasmoides gallisepticum, 36H
Experimental: as §1

Mycoplasma synoviae 40A = experiment: broth-dilution microtiter MIC test; format: cell-based; conditions: Mycoplasmopsis synoviae, 40A
Experimental: as §1

[12] = tested on: Pasteurella hemolytica 23C; experiment: broth-dilution microtiter MIC test; format: cell-based; conditions: Pasteurella, 23C
Experimental: as §1

[13] = tested on: Pasteurella multocida 40G; experiment: broth-dilution microtiter MIC test; format: cell-based; conditions: Pasteurella multocida, 40G
Experimental: as §1

[14] = tested on: Streptococcus pneumoniae Park I; experiment: microbe, parasite or virus in culture; format: cell-based; conditions: Streptococcus pneumoniae
Experimental: as §1

[15] = tested on: Staphylococcus aureus S13E; experiment: microbe, parasite or virus in culture; format: cell-based; conditions: Staphylococcus aureus, S13E
Experimental: as §1

[16] = tested on: Staphylococcus aureus X400; experiment: standard agar-dilution MIC assay; format: cell-based; conditions: Staphylococcus aureus, X400
Experimental: as §1

[17] = tested on: Streptococcus Group D X66; experiment: standard agar-dilution MIC assay; format: cell-based; conditions: read-out: MIC
Experimental: as §1

[18] = tested on: Klebsiella pneumoniae X68; experiment: standard agar-dilution MIC assay; format: cell-based; conditions: Klebsiella pneumoniae, X68
Experimental: as §1

[19] = tested on: Staphylococcus aureus V41; experiment: standard agar-dilution MIC assay; format: cell-based; conditions: Staphylococcus aureus, V41
Experimental: as §1

[20] = tested on: Staphylococcus epidermidis EP12; experiment: standard agar-dilution MIC assay; format: cell-based
Experimental: as §1

[21] = tested on: Staphylococcus aureus X1.1; experiment: standard agar-dilution MIC assay; format: cell-based; conditions: Staphylococcus aureus, X1.1
Experimental: as §1

[22] = tested on: Staphylococcus epidermidis EPI1; experiment: standard agar-dilution MIC assay; format: cell-based; conditions: Staphylococcus epidermidis, EPI1
Experimental: as §1

Escherichia coli EC14 = experiment: standard agar-dilution MIC assay; format: cell-based
Experimental: as §1

[23] = tested on: Streptococcus pyogenes C203; experiment: standard agar-dilution MIC assay; format: cell-based; conditions: Streptococcus pyogenes, C203
Experimental: as §1

[24] = tested on: Streptococcus Group D 9960; experiment: standard agar-dilution MIC assay; format: cell-based; conditions: GROUPD9960, read-out: MIC
Experimental: as §1

[25] = tested on: Pseudomonas aeruginosa X239; experiment: standard agar-dilution MIC assay; format: cell-based; conditions: Pseudomonas aeruginosa, X239
Experimental: as §1

Pasteurella multocida = Pasteurella multocida infection in one-day-old chicks; format: in vivo; conditions: subcutaneously, 30 mg/kg × 2, 1 and 4 hours post-challenge
Experimental: Some of the formula 1 compounds have also shown in vivo antibacterial activity against infections induced by Gram-negative bacteria. Table VI summarizes the results of tests in which illustrative compounds were evaluated against a Pasteurella infection in one-day-old chicks. The compounds were administered by subcutaneous injection at a dosage of 30 mg/kg, 1 and 4 hours post-challenge of the chicks with Pasteurella multocida (0.1 ml of a 10^-4 dilution of a twenty-hour tryptose broth culture of an avian P. multocida given subcutaneously). In these tests, unless indicated otherwise, all non-medicated infected chicks died within 24 hours of Pasteurella challenge.
^a Administered subcutaneously; 30 mg/kg × 2

[26] = tested on: Haemophilus influenzae C.L.; experiment: standard agar-dilution MIC assay; format: cell-based; conditions: Haemophilus influenzae
Experimental: as §1

[27] = tested on: Haemophilus influenzae 76; experiment: standard agar-dilution MIC assay; format: cell-based; conditions: Haemophilus influenzae, 76
Experimental: as §1

Compound | MIC [1] | MIC [2] | MIC [3] | MIC [4] | MIC [5] | MIC [6] | MIC [7] | MIC (Streptococcus sp. 19F) | MIC [8] | MIC [9] | MIC [10] | MIC (Mycoplasma hyorhinis 29E) | MIC [11] | MIC [12] | MIC [13] | MIC [14] | MIC [15] | MIC [16] | MIC [17] | MIC [18] | other results
CCC1OC(=O)CC(O)C(C)C(OC2OC(C)C(O)C(N(C)C)C2OC(C)=O)C(CC=O)CC(C)C(=O)C=CC(C)=CC1COC1OC(C)C(OC(=O)Cc2ccccc2)C(O)C1OC (stereo not shown) [Compound 29, 2'-O-Acetyl-4"-O-phenylacetyl-lactenocin] | 6.25 µg/mL (≈ 6.81 µM) | 12.5 µg/mL (≈ 13.6 µM) | > 50 µg/mL | 12.5 µg/mL (≈ 13.6 µM) | 25 µg/mL (≈ 27.2 µM) | 12.5 µg/mL (≈ 13.6 µM) | 25 µg/mL (≈ 27.2 µM) | 0.39 µg/mL (≈ 0.425 µM) | 12.5 µg/mL (≈ 13.6 µM) | 0.195 µg/mL (≈ 0.212 µM) | 1.56 µg/mL (≈ 1.7 µM) | 1.56 µg/mL (≈ 1.7 µM) | 6.25 µg/mL (≈ 6.81 µM) | 12.5 µg/mL (≈ 13.6 µM) | 25 µg/mL (≈ 27.2 µM) | 0.25 µg/mL (≈ 0.272 µM) | 1 µg/mL (≈ 1.09 µM) | 1 µg/mL (≈ 1.09 µM) | 1 µg/mL (≈ 1.09 µM) | > 128 µg/mL | MIC (Mycoplasma synoviae 40A): 0.195 µg/mL (≈ 0.212 µM); MIC [19]: 1 µg/mL (≈ 1.09 µM); MIC [20]: 1 µg/mL (≈ 1.09 µM); MIC [21]: 1 µg/mL (≈ 1.09 µM); MIC [22]: 1 µg/mL (≈ 1.09 µM); MIC (Escherichia coli EC14): > 128 µg/mL; MIC [23]: 0.5 µg/mL (≈ 0.545 µM); MIC [24]: 1 µg/mL (≈ 1.09 µM); MIC [25]: > 128 µg/mL; Number of Deaths/Number Treated (Pasteurella multocida): 9/10
CCC1OC(=O)CC(O)C(C)C(OC2OC(C)C(OC3CC(C)(O)C(O)C(C)O3)C(N(C)C)C2OC(C)=O)C(CC=O)CC(C)C(=O)C=CC(C)=CC1COC1OC(C)C(OC(=O)Cc2ccccc2)C(O)C1OC (stereo not shown) [Compound 9, 2'-O-Acetyl-4'"-O-phenylacetyl-macrocin] | > 50 µg/mL | 12.5 µg/mL (≈ 11.8 µM) | > 50 µg/mL | > 50 µg/mL | > 50 µg/mL | > 50 µg/mL | > 50 µg/mL | 1.56 µg/mL (≈ 1.47 µM) | > 50 µg/mL | 0.78 µg/mL (≈ 0.734 µM) | 3.12 µg/mL (≈ 2.94 µM) | 1.56 µg/mL (≈ 1.47 µM) | 12.5 µg/mL (≈ 11.8 µM) | > 50 µg/mL | > 50 µg/mL | 0.25 µg/mL (≈ 0.235 µM) | 2 µg/mL (≈ 1.88 µM) | 2 µg/mL (≈ 1.88 µM) | 1 µg/mL (≈ 0.941 µM) | > 128 µg/mL | MIC [19]: 1 µg/mL (≈ 0.941 µM); MIC [20]: 2 µg/mL (≈ 1.88 µM); MIC [21]: 1 µg/mL (≈ 0.941 µM); MIC [22]: 2 µg/mL (≈ 1.88 µM); MIC (Escherichia coli EC14): > 128 µg/mL; MIC [23]: 0.5 µg/mL (≈ 0.471 µM); MIC [24]: 0.5 µg/mL (≈ 0.471 µM); MIC [26]: 32 µg/mL (≈ 30.1 µM); MIC [27]: 32 µg/mL (≈ 30.1 µM); MIC [25]: > 128 µg/mL; Number of Deaths/Number Treated (Pasteurella multocida): 10/10
